{"source": "patent US20260345595A1", "about": "“NOVEL FLUORENE DERIVATIVE COMPOUND AND USE THEREOF” (JD BIOSCIENCE INC., priority 2022, published 2026)", "tested_on": "PDHE1α S293", "test": "In vitro PDH S293 phosphorylation inhibition, Western blot in HEK293 cells", "assay_type": "cell-based", "settings": "Homo sapiens, 5 hours", "procedure": "HEK293 cells, which are human embryonic kidney cells, were seeded at a density of 2×10^6 in a 60 mm dish, and cultured for 24 hours. After replacing the medium with a medium comprising 0.5% FBS, the compounds prepared according to Examples 1 to 54 were treated at various concentrations. 5 hours later, the cells were scraped off and collected into a 15 ml conical tube and centrifuged at 1500 rpm for 10 minutes. The supernatant was discarded, the resultant was washed with 1×PBS, and transferred to a 1.5 mL e-tube, followed by centrifugation at 10,000 rpm for 5 minutes. The supernatant was discarded again, a lysis buffer was added, and the cells were lysed on ice for 30 minutes. The cells were vortexed every 10 minutes to completely lyse, and centrifuged again at 10,000 rpm for 15 minutes at 4 °C., and the supernatant was collected. The protein in the supernatant was quantified using BCA technique, and the sample buffer was added to 20 μg of protein and allowed to react at 70 °C. for 5 minutes. The expression of PDHE1α S232, S293, S300, and total PDHE1α proteins was detected by Western blot, and the resulting PDH S293 phosphorylation inhibition is shown in Table 6."}
{"smiles": "CC(C(=O)NNc1ncc(C(F)(F)F)cc1Cl)n1cc(-c2cc(F)cc3c2-c2ccccc2C3(O)C(F)(F)F)cn1", "note": "(centres unmarked) [Compound 32, N′-(3-chloro-5-(trifluoromethyl)pyridin-2-yl)-2-(4-(2-fluoro-9-hydroxy-9-(trifluoromethyl)-9H-fluoren-4-yl)-1H-pyrazol-1-yl)propanehydrazide]", "values": [{"measurement": "inhibition at 1 µM", "value": "≥ 50", "unit": "%"}]}
{"smiles": "COc1cc(-c2cnn(C(C)C(=O)NNc3ncc(C(F)(F)F)cc3Cl)c2)c2c(c1)C(O)(C(F)(F)F)c1ccccc1-2", "note": "(centres unmarked) [Compound 33, N′-(3-chloro-5-(trifluoromethyl)pyridin-2-yl)-2-(4-(9-hydroxy-2-methoxy-9-(trifluoromethyl)-9H-fluoren-4-yl)-1H-pyrazol-1-yl)propanehydrazide]", "values": [{"measurement": "inhibition at 1 µM", "value": "≥ 50", "unit": "%"}]}
